Reference: patent publication US20230096766A1, “AMINO ACID HAVING FUNCTIONAL GROUP CAPABLE OF INTERMOLECULAR HYDROGEN BONDING, PEPTIDE COMPOUND CONTAINING SAME AND METHOD FOR PRODUCTION THEREOF” (Chugai Seiyaku Kabushiki Kaisha, priority 2018, published 2023)
*1 amine or outer side, *2 acyl side, *3 side chain or, on linkers, in order; H or OH if unused. Where a SMILES comes first, the peptide text is derived from it. Bridges are numbered along the chain shown (N, C = ends). [ ]: non-standard residue; d: D form. The star is where a group is joined. Phe(3-OMe,4-CONHMs) = COc1cc(C[C@H](N)C(=O)O)ccc1C(=O)NS(C)(=O)=O; NMePhe(3-Cl) = CN[C@@H](Cc1cccc(Cl)c1)C(=O)O; X12 = O=C([C@H](CCCC(O)C(F)(F)F)N[*:1])[*:2]; NMehPhe = CN[C@@H](CCc1ccccc1)C(=O)O; X7 = O=C(C[C@H](COCCO)N[*:1])[*:2]; NMeF = CN[C@@H](Cc1ccccc1)C(=O)O; NMeGABA = CN(CCCC(=O)[*:2])[*:1]; NMeI = CC[C@H](C)[C@H](NC)C(=O)O; NMeL = CN[C@@H](CC(C)C)C(=O)O; Propyl(2R-OH) = C[C@@H](O)C*; Butyl(3S-OH) = C[C@H](O)CC*; NMeV = CN[C@H](C(=O)O)C(C)C; NMeAbu = CC[C@H](NC)C(=O)O; NMeA = CN[C@@H](C)C(=O)O; Piperidide = C1CCN(*)CC1; Abu = CC[C@H](N)C(=O)O; CH2CMe2OH = CC(C)(O)C*; NBuGly = CCCCNCC(=O)O; Isopentyl = CC(C)CC*; NPrGly = CCCNCC(=O)O; Ethyl(2-OH) = OCC*; X3 = C[C@H](O)C*; Sar = CNCC(=O)O; tBu = CC(C)(C)*

Test: in vitro
Conditions: human

SMILES | Papp (Caco-2, Caco-2 (cm/sec)) [×10⁻⁶ cm/s] | other results
CCCCN1CC(=O)N(C)[C@@H](C(C)C)C(=O)N[C@@H](COC(C)(C)C)C(=O)N(C)[C@@H](Cc2ccccc2)C(=O)N(C)[C@@H](CC(C)C)C(=O)N[C@H](C(=O)N2CCCCC2)CC(=O)N[C@H](C(C)C)C(=O)N(C)[C@@H](Cc2ccccc2)C(=O)N[C@@H](COCC[C@H](C)O)C(=O)N(C)[C@@H](CC(C)C)C(=O)N[C@@H]([C@@H](C)O)C1=O [AP99] ([dV][NMeF]S(Butyl(3S-OH))[NMeL]T[NBuGly][NMeV]S(tBu)[NMeF][NMeL]D-Piperidide; lactam N-11) | 0.86 | –
CC[C@@H]1NC(=O)[C@H](CC(C)C)N(C)C(=O)[C@H](Cc2ccccc2)N(C)C(=O)CN(C)C(=O)[C@H](Cc2ccc(C(=O)NS(C)(=O)=O)c(OC)c2)NC(=O)[C@H](CC(C)C)N(C)C(=O)[C@H](C(C)C)NC(=O)[C@H](CC(C)C)N(C)C(=O)CN(C)C(=O)C[C@@H](C(=O)N2CCCCC2)NC(=O)[C@H](CC(C)C)N(C)C1=O [AP143] ([Sar][NMeL]V[NMeL][Phe(3-OMe,4-CONHMs)][Sar][NMeF][NMeL][Abu][NMeL]D-Piperidide; lactam N-11) | 0.13 | –
CC[C@H](C)[C@@H]1NC(=O)[C@H](CC(C)C)N(C)C(=O)CCCN(C)C(=O)C[C@@H](C(=O)N2CCCCC2)NC(=O)[C@H](CC(C)C)N(C)C(=O)[C@H](CC(C)C)N(C)C(=O)[C@H]([C@@H](C)O)NC(=O)[C@H](CC(C)C)N(C)C(=O)C[C@H](COCCO)NC(=O)[C@H](CC(C)C)N(C)C(=O)[C@H](Cc2cccc(Cl)c2)N(C)C1=O [AP22] ([NMeGABA][NMeL]I[NMePhe(3-Cl)][NMeL][X7][NMeL]T[NMeL][NMeL]D-Piperidide; lactam N-11) | 0.23 | –
CC[C@H]1C(=O)N(C)[C@@H](Cc2ccccc2)C(=O)N[C@@H](CC(C)C)C(=O)N(C)[C@@H](Cc2ccccc2)C(=O)N(C)[C@@H](C(C)C)C(=O)N[C@@H](CCCC(O)C(F)(F)F)C(=O)N(C)CC(=O)N(C)[C@@H](CC(C)C)C(=O)N[C@H](C(=O)N2CCCCC2)CC(=O)N(C)[C@@H](C)C(=O)N[C@@H](CC(C)C)C(=O)N1C (stereo partly drawn) [Compound D14] ([NMeA]L[NMeAbu][NMeF]L[NMeF][NMeV][X12][Sar][NMeL]D-Piperidide; lactam N-11) | – | Papp (Caco-2, Caco-2 (membrane permeability)): 0.9 ×10⁻⁶ cm/s
CC(C)C[C@@H]1NC(=O)[C@H](CCc2ccccc2)N(C)C(=O)[C@H](CCc2ccccc2)N(C)C(=O)[C@H](COCCO)NC(=O)[C@H](CC(C)C)N(C)C(=O)CCCN(C)C(=O)C[C@@H](C(=O)N2CCCCC2)NC(=O)[C@H](CC(C)C)N(C)C(=O)[C@H](CC(C)C)N(C)C(=O)[C@H]([C@@H](C)O)NC(=O)[C@H](CC(C)C)N(C)C1=O [Compound A03] ([NMeGABA][NMeL]S(Ethyl(2-OH))[NMehPhe][NMehPhe]L[NMeL]T[NMeL][NMeL]D-Piperidide; lactam N-11) | 0.32 | –
CCCCN1CC(=O)N(C)[C@@H](Cc2cccc(Cl)c2)C(=O)N(C)[C@@H](CC(C)C)C(=O)N[C@@H](COC[C@@H](C)O)C(=O)N(C)[C@@H](CC(C)C)C(=O)N[C@H](C(=O)N2CCCCC2)CC(=O)N(C)CC(=O)N(C)[C@@H](Cc2ccccc2)C(=O)N[C@@H]([C@@H](C)CC)C(=O)N(C)[C@@H](CC(C)C)C(=O)N[C@@H]([C@@H](C)O)C1=O [AP78] ([Sar][NMeF]I[NMeL]T[NBuGly][NMePhe(3-Cl)][NMeL]S(Propyl(2R-OH))[NMeL]D-Piperidide; lactam N-11) | 0.24 | –
CC(C)CCOC[C@@H]1NC(=O)[C@H](Cc2ccccc2)N(C)C(=O)[C@H](Cc2ccccc2)N(C)C(=O)[C@H](COCC(C)(C)O)NC(=O)[C@H](CC(C)C)N(C)C(=O)CCCN(C)C(=O)C[C@@H](C(=O)N2CCCCC2)NC(=O)[C@H](CC(C)C)N(C)C(=O)[C@H](CC(C)C)N(C)C(=O)[C@H]([C@@H](C)O)NC(=O)[C@H](CC(C)C)N(C)C1=O [AP03] ([NMeGABA][NMeL]S(CH2CMe2OH)[NMeF][NMeF]S(Isopentyl)[NMeL]T[NMeL][NMeL]D-Piperidide; lactam N-11) | 0.46 | –
CCCN1CC(=O)N(C)[C@@H](CC(C)C)C(=O)N[C@H](C(=O)N2CCCCC2)CC(=O)N(C)[C@@H](C)C(=O)N[C@@H](COC[C@H](C)O)C(=O)N(C)[C@@H](CC(C)C)C(=O)N(C)[C@@H](Cc2cccc(Cl)c2)C(=O)N[C@@H](CC(C)C)C(=O)N(C)[C@@H](Cc2ccccc2)C(=O)N(C)[C@@H]([C@@H](C)CC)C(=O)N[C@@H]([C@@H](C)O)C1=O [AP65] ([NMeA]S(X3)[NMeL][NMePhe(3-Cl)]L[NMeF][NMeI]T[NPrGly][NMeL]D-Piperidide; lactam N-11) | 1.2 | –
CC(C)C[C@@H]1NC(=O)[C@H](Cc2ccccc2)N(C)C(=O)[C@H]([C@@H](C)O)NC(=O)[C@H](Cc2ccccc2)NC(=O)[C@H](Cc2ccccc2)N(C)C(=O)C[C@@H](C(=O)N2CCCCC2)NC(=O)[C@H](C)N(C)C(=O)[C@H](CC(C)C)N(C)C(=O)CN(C)C(=O)[C@H](CC(C)C)N(C)C(=O)[C@H](Cc2ccccc2)N(C)C1=O [pd230] ([NMeF]FT[NMeF]L[NMeF][NMeL][Sar][NMeL][NMeA]D-Piperidide; lactam N-11) | – | Papp (Caco-2, Caco-2 (cm/sec) Papp): 0.25 ×10⁻⁶ cm/s
